Data reported in ChEMBL document CHEMBL1147696, “Discovery of bitriazolyl compounds as novel antiviral candidates for combating the tobacco mosaic virus” (2006).

Columns and labels:
Type in all cases: functional
Tobacco mosaic virus [1] = assay: Antiviral activity against TMV; design: concentration or dose not given beside the values
Tobacco mosaic virus [2] = assay: Induction of systemic acquired resistance of tobacco plant against TMV at 100 ug/ml by soil treatment
Tobacco mosaic virus [3] = assay: Induction of systemic acquired resistance of tobacco plant against TMV at 100 ug/ml by leaf spray treatment

| SMILES | Activity (Tobacco mosaic virus [1]) [%] | Activity (Tobacco mosaic virus [2]) [%] | Activity (Tobacco mosaic virus [3]) [%] |
| --- | --- | --- | --- |
| COc1ccc(-c2cn(-c3n[nH]c(C(N)=O)n3)nn2)cc1 | 0 | – | – |
| NC(=O)c1n[nH]c(-n2cc(-c3ccccc3)nn2)n1 | 0 | – | – |
| COC(=O)c1n[nH]c(-n2cc(-c3ccc(F)cc3)nn2)n1 | 12 | – | – |
| CCCCCc1ccc(-c2cn(-c3n[nH]c(C(=O)OC)n3)nn2)cc1 | 23 | – | – |
| COC(=O)c1n[nH]c(-n2cc(-c3ccc(C)cc3)nn2)n1 | 10 | – | – |
| NC(=O)c1n[nH]c(-n2cc(C3=CCCCC3)nn2)n1 | 7 | – | – |
| COC(=O)c1n[nH]c(-n2cc(C3(O)CCCCC3)nn2)n1 | 17 | – | – |
| COC(=O)c1n[nH]c(-n2cc(COC(C)=O)nn2)n1 | 36 | – | – |
| COC(=O)c1n[nH]c(-n2cc(C3(O)CCCC3)nn2)n1 | 10 | – | – |
| NC(=O)c1n[nH]c(-n2cc(C3(O)CCCC3)nn2)n1 | 13 | – | – |
| COC(=O)c1n[nH]c(-n2cc(-c3ccccc3)nn2)n1 | 63 | 10 | 10 |
| CCOC(=O)c1cn(-c2n[nH]c(C(=O)OC)n2)nn1 | 20 | – | – |
| NC(=O)c1cn(-c2n[nH]c(C(N)=O)n2)nn1 | 0 | – | – |
| CCCCCc1ccc(-c2cn(-c3n[nH]c(C(N)=O)n3)nn2)cc1 | 28 | – | – |
| O=C1NCNC(=O)N1 | 45 | – | – |
| NC(=O)c1n[nH]c(-n2cc(CO)nn2)n1 | 8 | – | – |
| NC(=O)c1n[nH]c(-n2cc(-c3ccc(F)cc3)nn2)n1 | 0 | – | – |
| COC(=O)c1n[nH]c(-n2cc(-c3ccc(OC)cc3)nn2)n1 | 15 | – | – |
| Cc1ccc(-c2cn(-c3n[nH]c(C(N)=O)n3)nn2)cc1 | 6 | – | – |
| NC(=O)c1n[nH]c(-n2cc(C3(O)CCCCC3)nn2)n1 | 0 | – | – |
| COC(=O)c1n[nH]c(-n2cc(C3=CCCCC3)nn2)n1 | 75 | 0 | 0 |
| CSC(=O)c1cccc2nnsc12 [ACIBENZOLAR-S-METHYL] | – | 96 | 95 |
| NC(=O)c1ncn([C@@H]2O[C@H](CO)[C@@H](O)[C@H]2O)n1 [RIBAVIRIN] | 49 | – | – |
